# Laboratory results from paper PMC10661773, “Cytotoxic pathways activated by multifunctional thiosemicarbazones targeting sigma-2 receptors in breast and lung carcinoma cells” (Pharmacological Reports, 2023).
# Where two headings read alike, the source gives them in different places.
# Columns and labels:
# [1] = test system: A549; assay: Cell viability, MTT assay at 48 h; format: cell-based; settings: Homo sapiens, A549, 48 h, read-out: EC50 ± SEM, tumor cells A549
# Protocol: (§1) Human MCF7 breast adenocarcinoma (#HTB-22) and human A549 carcinoma (#CCL-85) cell lines, non-tumor human breast (MCF10A, #CRL-10317) and lung (BEAS-2B, #CRL-9482) cells were obtained from American Type Culture Collection (ATCC, Bethesda, MD). MCF7 cells were cultured in DMEM medium (Gibco Thermo Scientific, Waltham, MA; #10,565,018), A549 in HAM’s F12 medium (Gibco Thermo Scientific; #11,765,054), and BEAS-2B in RPMI-1640 medium (Gibco Thermo Scientific; # 61,870,010), all supplemented with 10% v/v fetal bovine serum (FBS; Sigma, St. Louis, MO; #F4135) and 1% v/v penicillin–streptomycin (Sigma; #P4458). MCF10A cells were cultured in DMEM/F12 medium (Gibco Thermo Scientific; #31,331,028) supplemented with 5% v/v horse serum (Sigma; #H1270) and 1% v/v penicillin–streptomycin, 20 ng/mL epidermal growth factor (Sigma, #E4127), 10 µg/mL insulin (Sigma, #I3536), […] hydrocortisone (Sigma, #H0888), 100 ng/mL cholera toxin (Sigma, #C8052). Cells were kept in a humidified incubator at 37 °C with 5% CO2.
# (§2) Cell growth was determined using the MTT assay at 48 h. On day 1, 25,000 cells/well were seeded into 96-well plates in a volume of 100 μL. On day 2, the various drug concentrations (1 μM–100 μM) were added. In all experiments, the various drug solvents (EtOH, Sigma, # E7148; DMSO, Sigma, # D8418) were added to each control to evaluate possible cytotoxicity of the solvent. After the established incubation time with drugs (48 h), MTT (0.5 mg/mL, Sigma # M2003) was added to each well, and after 3–4 h incubation at 37 °C, the supernatant was removed. Formazan crystals were solubilized using 100 μl of DMSO/EtOH (1:1) and absorbance values at 570 and 630 nm were determined on the microplate reader Victor 3 from PerkinElmer Life Sciences (Waltham, MA).
# [2] = test system: BEAS-2B; assay: Cell viability, MTT assay at 48 h; format: cell-based; settings: Homo sapiens, read-out: EC50 ± SEM, normal cells BEAS-2B
# Protocol: as §1, §2
# [3] = test system: MCF10A; assay: Cell viability, MTT assay at 48 h; format: cell-based; settings: Homo sapiens, MCF-10A, read-out: EC50 ± SEM, normal cells MCF10A
# Protocol: as §1, §2
# [4] = test system: MCF7; assay: Cell viability, MTT assay at 48 h; format: cell-based; settings: Homo sapiens, MCF7, 48 h, read-out: EC50 ± SEM, tumor cells MCF7
# Protocol: as §1, §2
# [5] = test system: caspase 9 in MCF7 cells; assay: Caspase 9 activity, fluorimetric; format: cell-based, human; settings: MCF7, 2 h, 50 µM
# Protocol: Activation of caspase 3, caspase 7 and caspase 9 was measured using the Caspase 3/7 Fluorescence Assay kit (Cayman Chemical, Ann Arbor, MI; #10,009,135) and the Caspase 9 fluorimetric assay kit (Enzo Life Science, Roma, Italy; #ALX-850-224). The results were expressed as nmoles of the hydrolyzed substrate of each caspase/mg cellular proteins, according to a previously set titration curve.
# [6] = test system: GRP78, ATF6, IRE1, PERK in MCF7 cells; assay: ER stress markers, qRT-PCR and immunoblotting; format: cell-based, human; settings: MCF7, 2 h, 50 µM
# Protocol: 1 μg total RNA was reverse-transcribed using the iScript Reverse Transcription Supermix kit (Bio-Rad Laboratories, Hercules, CA; #1,708,840), according to the manufacturer’s instruction. 25 ng cDNA were amplified with 10 μL IQ™ SYBR Green Supermix (Bio-Rad Laboratories, # 1708880B05). Primers were designed with the qPrimer Depot software (http://primerdepot.nci.nih.gov/). qRT-PCR was carried out with a CFX96™ Real-Time Detector System (Bio-Rad Laboratories). Cycling conditions were: 30 s at 95 °C, followed by 40 cycles of denaturation (15 s at 95 °C), annealing/extension (30 s at 60 °C). The same cDNA preparation was used to quantify the genes of interest and the housekeeping gene S14, used to normalize gene expression. The relative quantitation of each sample was carried out using the Gene Expression Quantitation software (Bio-Rad Laboratories). Results were expressed in arbitrary units. For each gene, the expression in untreated cells was assumed to be “1”.
# Cells were rinsed with ice-cold lysis buffer (50 mM, Tris, 10 mM EDTA, 1% v/v Triton-X100), supplemented with the protease inhibitor cocktail set III (80 μM aprotinin, 5 mM bestatin, 1.5 mM leupeptin, 1 mM pepstatin; Sigma, # 535,140), 2 mM phenylmethylsulfonyl fluoride (Sigma: #P7626) and 1 mM Na3VO4, (Sigma; #S6508) then sonicated and centrifuged at 13,000 × g for 10 min at 4 °C. 20 μg protein extracts were subjected to SDS–PAGE and probed with the antibodies for: GRP78 (#ab21685), ATF6 (#ab122897), IRE-1 (#ab37073), PERK (#ab65142), actin (#ab1801) (all from Abcam, Cambridge, UK), followed by a peroxidase-conjugated secondary antibody (Bio-Rad Laboratories). The membranes were washed with Tris-buffered saline-Tween 0.1% v/v solution, and the proteins were detected by enhanced chemiluminescence (Bio-Rad Laboratories, #1,705,061). The densitometric analysis was performed using the ImageJ software (https://imagej.nih.gov/), calculating the ratio protein of interest/actin band density, putting actin band density as 1 relative unit in each condition. Densitometric analysis and whole blots are included as Supporting Information.
# [7] = test system: MCF7 and A549 cells; assay: Whole cell ROS, DCFDA-AM probe; format: cell-based, human; settings: MCF7 and A549, 2 h, 50 µM
# Protocol: (§3) Intramitochondrial reactive oxygen species (ROS) were measured using the MitoSOX fluorescent probe (Invitrogen ThermoScientific, # M36008), according to the manufacturer’s instructions. For total ROS, cells were incubated with 5 µmol/L of 5-(and-6)-chlorometyl-20,70-dichlorodihydro-fluorescein diacetate-acetoxymethyl ester (DCFDA-AM, Sigma, #21,884), as described by Riganti et al. 2015 [21]. The results are expressed as nmoles/mg mitochondrial or cellular proteins, respectively.
# [8] = test system: A549 cells; assay: Mitochondrial depolarization, JC-1 staining; format: cell-based, human; settings: A549, 2 h, 50 µM
# Protocol: (§4) Staining with the JC-1 fluorescent probe (Biotium Inc., Freemont, CA; #30,001-30001-T) was performed as described in Riganti et al. 2015 [21]. Fluorescence units were used to calculate the percentage of green-fluorescent (i.e., depolarized) mitochondria vs red-fluorescent (i.e., polarized) mitochondria.
# [9] = test system: MCF7 cells; assay: Mitochondrial depolarization, JC-1 staining; format: cell-based, human; settings: MCF7, 2 h, 50 µM
# Protocol: as §4
# [10] = target: sigma-2 receptors (Homo sapiens, UniProt Q5BJF2); settings: read-out: Sigma-2 Affinity Ki; cited from earlier work
# [11] = target: T1, P-gp (Homo sapiens, UniProt P08183); settings: cited from earlier work
# T1 construct: expressed in transfected cells; host or cells: MDCK-MDR1
# [12] = test system: A549 cells; assay: Mitochondrial ROS, MitoSOX staining; format: cell-based, human; settings: A549, 2 h, 50 µM
# Protocol: as §3
# [13] = test system: MCF7 cells; assay: Mitochondrial ROS, MitoSOX staining; format: cell-based, human; settings: MCF7, 2 h, 50 µM
# Protocol: as §3
# [14] = test system: MCF7; parameters: method as in doi:10.1039/C5RA19857G; settings: MTT; read-out: EC50, tumor cells MCF7; cited from earlier work
# [15] = test system: A549; parameters: method as in doi:10.1039/C5RA19857G; settings: MTT; read-out: EC50, tumor cells A549; cited from earlier work
# Chain of sigma-2 receptors (Q5BJF2 whole entry): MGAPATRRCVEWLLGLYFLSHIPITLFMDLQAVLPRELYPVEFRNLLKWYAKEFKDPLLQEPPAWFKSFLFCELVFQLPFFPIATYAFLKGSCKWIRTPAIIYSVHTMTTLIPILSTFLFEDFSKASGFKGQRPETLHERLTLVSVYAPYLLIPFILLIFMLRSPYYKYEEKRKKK
# T1 sequence (P08183 whole entry): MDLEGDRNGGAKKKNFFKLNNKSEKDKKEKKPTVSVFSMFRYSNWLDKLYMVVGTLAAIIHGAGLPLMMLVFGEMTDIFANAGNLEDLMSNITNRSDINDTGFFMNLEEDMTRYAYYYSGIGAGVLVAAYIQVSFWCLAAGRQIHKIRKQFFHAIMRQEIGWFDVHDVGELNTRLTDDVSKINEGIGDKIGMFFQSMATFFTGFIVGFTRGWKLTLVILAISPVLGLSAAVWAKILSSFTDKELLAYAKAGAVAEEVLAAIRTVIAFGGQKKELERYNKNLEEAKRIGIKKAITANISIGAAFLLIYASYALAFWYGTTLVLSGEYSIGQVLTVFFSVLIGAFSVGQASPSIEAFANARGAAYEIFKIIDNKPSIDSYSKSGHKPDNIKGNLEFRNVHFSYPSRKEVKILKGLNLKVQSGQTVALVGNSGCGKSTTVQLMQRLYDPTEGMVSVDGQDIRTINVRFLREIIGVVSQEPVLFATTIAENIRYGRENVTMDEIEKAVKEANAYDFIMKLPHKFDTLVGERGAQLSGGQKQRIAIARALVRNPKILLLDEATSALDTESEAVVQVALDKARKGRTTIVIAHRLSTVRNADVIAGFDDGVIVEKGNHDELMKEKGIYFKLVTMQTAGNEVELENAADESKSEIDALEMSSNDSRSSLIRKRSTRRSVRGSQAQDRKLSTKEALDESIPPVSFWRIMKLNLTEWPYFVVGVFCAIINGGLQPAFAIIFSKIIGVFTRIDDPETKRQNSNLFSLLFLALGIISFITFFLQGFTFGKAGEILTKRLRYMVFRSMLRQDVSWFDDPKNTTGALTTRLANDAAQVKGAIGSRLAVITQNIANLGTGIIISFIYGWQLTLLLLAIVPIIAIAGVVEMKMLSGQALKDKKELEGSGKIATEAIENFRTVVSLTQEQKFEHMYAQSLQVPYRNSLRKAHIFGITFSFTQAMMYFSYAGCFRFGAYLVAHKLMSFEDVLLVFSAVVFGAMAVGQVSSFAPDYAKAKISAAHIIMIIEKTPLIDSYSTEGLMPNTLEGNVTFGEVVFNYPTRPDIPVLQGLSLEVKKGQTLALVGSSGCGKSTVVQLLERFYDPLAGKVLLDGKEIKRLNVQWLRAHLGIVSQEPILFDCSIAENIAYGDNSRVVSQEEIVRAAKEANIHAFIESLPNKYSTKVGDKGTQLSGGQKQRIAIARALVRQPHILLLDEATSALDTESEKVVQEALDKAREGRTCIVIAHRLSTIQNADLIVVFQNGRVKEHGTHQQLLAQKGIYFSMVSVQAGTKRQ
Compound,EC50 [1],EC50 [2],EC50 [3],EC50 [4],Rank order of caspase 9 activation [5],"Expression of ER stress markers GRP78, ATF6, IRE1, PERK [6]",ROS levels in whole cells (DCFDA-AM) [7],Mitochondrial depolarization (JC-1 staining) [8],Mitochondrial depolarization (JC-1 staining) [9],Ki [10],P-gp Activity EC50 [11],Mitochondrial ROS (MitoSOX) [12],Mitochondrial ROS (MitoSOX) [13],EC50 [14],EC50 [15],EC50 [11]
"CN(C)C(=S)N/N=C1\C(=O)Nc2ccccc21 [ACThio1, (Z)-N,N-dimethyl-2-(2-oxoindolin-3-ylidene)hydrazinecarbothioamide]",4.08 ± 0.4 µM,3.39 ± 0.8 µM,2.09 ± 0.4 µM,5.88 ± 1.1 µM,FA4 > MLP44 > PS3 > ACThio1,no or negligible effect,not significantly increased,did not produce any detectable changes in mitochondrial polarization,did not produce any detectable changes in mitochondrial polarization,> 10 µM,Not Active^d,,,,,
"COc1cc2c(cc1OC)CN(CCCCN1C(=O)/C(=N\NC(=S)N(C)C)c3ccccc31)CC2 [MLP44, (Z)-2-(1-(4-(6,7-Dimethoxy-3,4-dihydroisoquinolin-2(1H)-yl)butyl)-2-oxoindolin-3-ylidene)-N,N-dimethylhydrazinecarbothioamide]",,11.9 ± 2.1 µM,24.2 ± 0.8 µM,,FA4 > MLP44 > PS3 > ACThio1,modest effects,variable,totally insensitive,strong depolarization,0.0341 µM,,increased,increased,24.6 µM,10.4 µM,3.04 µM
"CN(C)C(=S)N/N=C1\C(=O)N(CCCCN2CCN(C3CCCCC3)CC2)c2ccccc21 [PS3, (Z)-2-[1-[4-(4-cyclohexylpiperazin-1-yl)butyl]-2-oxoindolin-3-ylidene]-N,N-dimethylhydrazinecarbothioamide]",,6.22 ± 1.3 µM,3.03 ± 0.6 µM,,FA4 > MLP44 > PS3 > ACThio1,modest effects,not significantly increased,did not produce any detectable changes in mitochondrial polarization,did not produce any detectable changes in mitochondrial polarization,0.0354 µM,,,,1.81 µM,2.2 µM,2.83 µM
